Series [1] has as its target T1, Tyrosinase (Agaricus bisporus) (UniProt O42713).
T1 sequence (whole entry): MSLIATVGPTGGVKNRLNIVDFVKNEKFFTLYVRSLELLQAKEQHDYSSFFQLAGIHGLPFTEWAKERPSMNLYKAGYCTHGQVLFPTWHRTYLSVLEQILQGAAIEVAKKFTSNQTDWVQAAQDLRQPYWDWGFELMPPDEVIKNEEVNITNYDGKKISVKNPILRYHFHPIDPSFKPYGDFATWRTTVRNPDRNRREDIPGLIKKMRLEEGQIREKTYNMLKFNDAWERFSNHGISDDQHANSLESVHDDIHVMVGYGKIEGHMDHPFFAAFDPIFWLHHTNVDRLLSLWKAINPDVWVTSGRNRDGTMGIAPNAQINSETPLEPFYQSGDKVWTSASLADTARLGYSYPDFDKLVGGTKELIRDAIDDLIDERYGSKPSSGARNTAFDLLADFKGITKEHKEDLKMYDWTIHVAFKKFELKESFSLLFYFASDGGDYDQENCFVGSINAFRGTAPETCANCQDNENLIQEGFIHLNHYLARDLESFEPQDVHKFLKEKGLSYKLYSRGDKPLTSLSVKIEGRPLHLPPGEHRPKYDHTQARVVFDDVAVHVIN
In words: Inhibition of mushroom tyrosinase at 1 uM.

A further series addresses T2, Tyrosinase (Agaricus bisporus, UniProt O42713).
T2 sequence (O42713 whole entry): T1 sequence (whole entry)
In words: Inhibition of mushroom tyrosinase.

Series [2] concerns the target T1, Tyrosinase (Agaricus bisporus). In words: Ratio of kojic acid IC50 to compound IC50 for mushroom tyrosinase.
Series [3] relates to B16. The series is described as follows: cells. The conditions noted are these: Mus musculus.
A further series can be described thus: in vitro. To be noted: mouse, B16 cells.
Series [4] deals with B16. In words: Ratio of kojic acid IC50 to compound IC50 for inhibition of melanogenesis in mouse B16 cells. It is filed as functional.
In series [5] the test system is B16. In words: Antimelanogenic activity in mouse B16 cells assessed as inhibition of melanogenesis at 1 uM. It is filed as functional.
Series [6] in a line: Cytotoxicity in mouse B16 cells assessed as cell viability at 1 uM after 72 hrs. It is filed as cell-based. The conditions noted are these: read-out: Activity.
Series [7] has as its system B16. The series is described as follows: Antimelanogenic activity in mouse B16 cells assessed as inhibition of melanogenesis at 3 uM. It is filed as functional.

Where only a bound is given, the exact number is not on record here.

Description for in vitro: Cytotoxicity in mouse B16 cells assessed as cell viability at 10 uM after 72 hrs

On to `O=C(NCc1ccc(O)cc1)c1cc(C23CC4CC(CC(C4)C2)C3)c(O)cc1O`, for which the inhibition in series [1] was less than 5%.

`COc1ccc(C(=O)NCc2ccc(O)cc2O)c(OC)c1`: the IC50 was 400 nM at Tyrosinase and 14200 nM in the series with B16 [3]. In addition, in [2], the Ratio IC50 is 30. For the same compound, the viability at 72 h, 10 µM in “in vitro” stood at 100%.

In the case of `COc1cc(OC)c(C23CC4CC(CC(C4)C2)C3)cc1C(=O)NCc1ccc(O)cc1O`, the half-inhibitory concentration (IC50) at Tyrosinase came to 900 nM; with B16 [3] it was 1100 nM. In addition, the “Ratio IC50” value in the series with B16 [4] is reported as 200. The compound also displayed a viability at 72 h, 10 µM in “in vitro” of 95%.

In turn, `COc1ccc(C(=O)NCc2ccc(O)cc2O)cc1C12CC3CC(CC(C3)C1)C2` gave a half-maximal inhibitory concentration (IC50) against Tyrosinase of 1400 nM. In addition, the inhibition at 1 µM in the series on B16 [5] was less than 5%. Besides, the viability at 72 h, 1 µM in series [6] worked out at 100%. In addition, the viability at 72 h, 10 µM in “in vitro” was found to be 44%.

On Tyrosinase, `O=C(NCc1ccc(O)cc1O)c1ccc(O)c(C23CC4CC(CC(C4)C2)C3)c1` had an IC50 of 900 nM. In addition, the inhibition at 1 µM in the series with B16 [5] was less than 5%. The viability at 72 h, 1 µM in series [6] came out at 99%. In the series “in vitro”, this compound returned a viability at 72 h, 10 µM of 41%.

For the compound `COc1ccc(C(=O)NCc2ccc(O)cc2O)c(O)c1`, the IC50 was 300 nM on Tyrosinase and 27600 nM in the series with B16 [3]. Further, in series [2], the Ratio IC50 amounted to 30. The compound further yielded a viability at 72 h, 10 µM in the series “in vitro” of 96%.

As for `O=C(NCc1ccc(O)cc1O)c1cc(C23CC4CC(CC(C4)C2)C3)c(O)cc1O`, half-maximal inhibition on Tyrosinase (IC50) required 1100 nM. Moreover, in the series with B16 [5], the inhibition at 1 µM was less than 5%. For the same compound, the viability at 72 h, 1 µM in [6] worked out at 86%. Further, the inhibition at 3 µM in the series on B16 [7] is 90%. In the series “in vitro”, this compound displayed a viability at 72 h, 10 µM of 62%.

Turning to `COc1ccc(CNC(=O)c2cc(C34CC5CC(CC(C5)C3)C4)c(O)cc2O)c(OC)c1`, in series [1], the inhibition is less than 5%.

Regarding `O=C(NCc1ccc(O)cc1O)c1ccc(O)cc1O`, the figures for the IC50 against Tyrosinase and with B16 [3] were 900 nM and 26700 nM, respectively. For the same compound, the Ratio IC50 in [2] turned out to be 30. For the same compound, the viability at 72 h, 10 µM in “in vitro” turned out to be 100%.

As for `O=C(NCc1ccccc1O)c1cc(C23CC4CC(CC(C4)C2)C3)c(O)cc1O`, the inhibition in series [1] was less than 5%.

For `COc1cc(O)c(C(=O)NCc2ccc(O)cc2O)cc1C12CC3CC(CC(C3)C1)C2`, the values for the half-maximal inhibitory concentration (IC50) on Tyrosinase and with B16 [3] were 800 nM and 1800 nM, respectively. Besides, in the series on B16 [4], the “Ratio IC50” value amounted to 200. For the same compound, the viability at 72 h, 10 µM in the series “in vitro” was 100%.

Consider `CCCCc1ccc(O)cc1O` [RUCINOL], for which inhibition in the series with B16 [3] was half-maximal at 20000 nM (IC50).

The record behind these values is ChEMBL document CHEMBL2010743, “Adamantyl N-benzylbenzamide: new series of depigmentation agents with tyrosinase inhibitory activity” (Bioorg Med Chem Lett, 2012).
